Assay results from patent US20240148664A1, “LIPID AND COMPOSITION” (SOGO PHARMACEUTICAL CO., LTD., priority 2021, published 2024).

What was measured:
[1] = Measurement of particle size, polydispersity index and zeta potential of lipid nanoparticle (Zetasizer); assay type: physicochemical
Procedure, shortened: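 Dialysed LNP solution diluted in ultrapure water; particle size taken as Z-average and PDI by dynamic light scattering (Zetasizer). Zeta potential measured with pH 7.4 Tris-HCl as diluent.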

[2] = system: HT1080-EGFP (human/fibrosarcoma) cells; assay: Evaluation of knockdown effect (GFP assay), Cell experiment 1; assay type: cell-based; settings: lipid nanoparticle containing siRNA against EGFP; fluorescence intensity with control cells without lipid nanoparticle set at 100
Method: A cell experiment was carried out by using HT1080-EGFP (human/fibrosarcoma) cells in order to evaluate lipid nanoparticles encapsulating an siRNA produced by using the lipids of the Examples and the Comparative Examples. These cells are cells provided with a green fluorescent protein gene (EGFP). The expression of EGFP can be easily confirmed by measuring the fluorescence intensity of a solution in which the cells are lysed, and thus by acting lipid nanoparticles encapsulating an siRNA that suppresses the expression of EGFP and observing any decrease in fluorescence intensity, the performance of the lipid nanoparticles used can be evaluated. Hereinafter, the procedure of the cell experiment will be shown.
(§1) A. Provision of Cells • (i) A liquid medium (DMEM/Ham's F12, FBS+, P/S+) (FBS: fetal bovine serum, P/S: antibiotic) was taken out from a refrigerator and temperature-controlled in an incubator set at 37° C. • (ii) A cryotube containing the cells was taken out from a −80° C. freezer and thawed at once in an incubator set at 37° C. • (iii) A stock solution of the thawed cells was collected in a capped test tube. • (iv) The tube containing the cells was washed with the liquid medium, and the wash was also collected in the test tube. • (v) The tube was subjected to a centrifuge to precipitate the cells. • (vi) The supernatant was aspirated, and the liquid medium was added and gently tapped to disperse the cells. • (vii) A small amount of the cells-dispersed liquid medium was collected, and the number of cells was observed and counted under a microscope. • (viii) The cells were seeded in a 24-well plate such that the number of cells was 2×10^4 cells per well. For the plate for an LDH assay described later, the cells were seeded in a 96-well plate such that the number of cells was 4×10^3 cells per well. • (ix) The 24-well plate or the 96-well plate was placed in an incubator, and the cells were cultured for 24 hours under conditions of 37° C. and 5% CO2.
The produced lipid nanoparticles were introduced into cells. • (i) Fetal bovine serum (FBS) was added to a liquid medium (FBS-, P/S-) temperature-controlled as in (i) of A above, in such a way as to reach 10%. • (ii) A 24-well plate was taken out from an incubator, and the liquid medium supernatant in the 24-well plate was aspirated and washed with phosphate buffered saline (PBS). • (iii) 400 μL of the liquid medium produced in (i) above was added to the washed 24-well plate. In addition, 100 μL of an LNP solution having an adjusted concentration was added. • (iv) The 24-well plate was placed in the incubator, and the cells were cultured (for 24 hours). • (v) After 24 hours, the liquid medium supernatant in the 24-well plate was aspirated, and 500 μL of a liquid medium containing 10% FBS (FBS+/P/S+) was added. • (vi) The 24-well plate was placed in the incubator, and the cells were cultured for 24 hours under conditions of 37° C. and 5% CO2.
By carrying out a GFP assay, the EGFP expression level in cells was measured to evaluate the effect of knocking down the green fluorescent protein gene (EGFP) by lipid nanoparticles. • (i) A 24-well plate was taken out from an incubator and washed with PBS. • (ii) A 1% octylglucoside solution to which a protease inhibitor was added was added in order to disrupt cells. Stirring with a pipette lysed the cells. • (iii) The cell lysate was transferred to an Eppendorf tube and subjected to a centrifuge. • (iv) 150 μL of the supernatant was collected and added to a plate for fluorescence measurement. • (v) The fluorescence intensity was measured under conditions of an excitation wavelength of 485 nm and a fluorescence wavelength of 535 nm with a plate reader (manufactured by TECAN, Infinite M200). The fluorescence intensity was calculated with the fluorescence intensity of control cells to which no lipid nanoparticle was added set at 100.

[3] = system: HT1080-EGFP (human/fibrosarcoma) cells; assay: Evaluation of toxicity: LDH assay; assay type: cell-based; settings: lipid nanoparticle containing siRNA; absorbance relative to control cells without lipid nanoparticle set at 1.00
Method: as §1
The introduction of lipid nanoparticles into cells for an LDH assay described later was carried out as follows. • (i) A 96-well plate was taken out from an incubator. • (ii) The liquid medium supernatant in the 96-well plate was aspirated and washed with phosphate buffered saline (PBS). • (iii) 160 μL of a liquid medium containing 10% FBS (FBS+/P/S+) was added to the washed 96-well plate. In addition, 40 μL of an LNP solution having an adjusted concentration was added. • (iv) The 96-well plate was placed in the incubator, and the cells were cultured for 24 hours under conditions of 37° C. and 5% CO2.
For Examples 1 to 9, a CCK-8 assay or an LDH assay was carried out to measure the metabolic activity of viable cells and relatively quantify the number of surviving cells to evaluate the toxicity of lipid nanoparticles.
An LDH assay was carried out by using a viable cell counting kit (DOJINDO LABORATORIES, Cytotoxicity LDH Assay Kit-WST) as follows. • (i) 20 μL of a lysis buffer was added to each of positive control wells and incubated at 37° C. for 30 minutes in an incubator. • (ii) 100 μL of the supernatant was taken from each well and transferred to a 96-well plate for measurement. • (iii) 100 μL of the reagent mixture attached to the kit was added to all the wells, and a color reaction was carried out for 30 minutes at room temperature with exclusion of light. • (iv) 50 μL of the stop solution reagent attached to the kit was added to all the wells. • (v) The 96-well plate was measured under conditions of a measurement wavelength of 490 nm and a target wavelength of 630 nm with a plate reader (manufactured by TECAN, Infinite M200) to calculate the absorbance. The absorbance was calculated with the absorbance of control cells to which no lipid nanoparticle was added set at 1.00. When the obtained value was 0.50 or less, a rating of double-circle (excellent) was given, when the obtained value was more than 0.50 and 1.0 or less, a rating of circle (good) was given, when the obtained value was more than 1.0 and less than 6.0, a rating of triangle (fair) was given, and when the obtained value was 6.0 or more, a rating of X-mark (poor) was given.

[4] = lipid nanoparticle containing siRNA, main lipid/DPPC/cholesterol=45/10/45, Z-average in ultrapure water
[5] = lipid nanoparticle containing siRNA, main lipid/DPPC/cholesterol=45/10/45, ultrapure water
[6] = lipid nanoparticle containing siRNA, pH 7.4 Tris-HCl
[7] = mRNA lipid nanoparticle for in vivo experiment, PEG-modified lipid (PEG2000-DMG 1.5 mol %) present
[8] = mRNA lipid nanoparticle for in vivo experiment, PEG-modified lipid absent

| Structure (SMILES) | Particle size (nm) [1, 4] [nm] | PDI [1, 5] | Zeta potential (mV) [1, 6] [mV] | PDI [1, 7] | Particle size (nm) [1, 7] [nm] | Zeta potential (mV) [1, 7] [mV] | PDI [1, 8] | Particle size (nm) [1, 8] [nm] | Zeta potential (mV) [1, 8] [mV] | GFP Assay [2] | LDH Assay [3] |
| --- | --- | --- | --- | --- | --- | --- | --- | --- | --- | --- | --- |
| CCCCCCCC/C=C\CCCCCCCCC(CCCCCCC/C=C\CCCCCCCC)OC(=O)C(CC(=O)O)NC(=O)C(N)CCCNC(=N)N (centres unmarked) [Example 1, 3-(2-amino-5-guanidinopentanamido)-4-(((9Z,27Z)-hexatriaconta-9,27-dien-18-yl)oxy)-4-oxobutanoic acid] | 116.5 | 0.169 | 6.98 | – | – | – | – | – | – | 28 | ⊚ (When the obtained value was 0.50 or less, a rating of double-circle (excellent) was given) |
| CCCCCCCC/C=C\CCCCCCCCC(CCCCCCC/C=C\CCCCCCCC)OC(=O)C(NC(=O)C(N)CCCNC(=N)N)C(C)O [Example 5, (9Z,27Z)-hexatriaconta-9,27-dien-18-yl (2S)-2-((S)-2-amino-5-guanidinopentanamido)-3-hydroxybutanoate] | 109.2 | 0.084 | 15.2 | – | – | – | – | – | – | 22 | ⊚ (When the obtained value was 0.50 or less, a rating of double-circle (excellent) was given) |
| CCCCCCCC/C=C\CCCCCCCCC(CCCCCCC/C=C\CCCCCCCC)OC(=O)[C@H](CCSC)NC(=O)[C@@H](N)CCCNC(=N)N (some centres unmarked) [Example 6, (9Z,27Z)-hexatriaconta-9,27-dien-18-yl arginylmethioninate] | 125.9 | 0.118 | 21.9 | – | – | – | – | – | – | 40 | ◯ (when the obtained value was more than 0.50 and 1.0 or less, a rating of circle (good) was given) |

More lines, main results first:

| Particle size (nm) [1, 4] [nm] | PDI [1, 5] | Zeta potential (mV) [1, 6] [mV] | PDI [1, 7] | Particle size (nm) [1, 7] [nm] | Zeta potential (mV) [1, 7] [mV] | PDI [1, 8] | Particle size (nm) [1, 8] [nm] | Zeta potential (mV) [1, 8] [mV] | Structure (SMILES) | GFP Assay [2] | LDH Assay [3] |
| --- | --- | --- | --- | --- | --- | --- | --- | --- | --- | --- | --- |
| 117.1 | 0.085 | −7.75 | – | – | – | – | – | – | CCCCCCCC/C=C\CCCCCCCCC(CCCCCCC/C=C\CCCCCCCC)OC(=O)C(CC(=O)O)NC(=N)N (centres unmarked) [Comparative Example 2, 3-guanidino-4-(((9Z,27Z)-hexatriaconta-9,27-dien-18-yl)oxy)-4-oxobutanoic acid, reference compound] | 97 | ⊚ (When the obtained value was 0.50 or less, a rating of double-circle (excellent) was given) |
| 137.0 | 0.329 | −7.66 | – | – | – | – | – | – | CCCCCCCC/C=C\CCCCCCCCC(CCCCCCC/C=C\CCCCCCCC)OC(=O)C(CCC(=O)O)NC(=N)N (centres unmarked) [Comparative Example 3, 4-guanidino-5-(((9Z,27Z)-hexatriaconta-9,27-dien-18-yl)oxy)-5-oxopentanoic acid, reference compound] | 102 | Δ (when the obtained value was more than 1.0 and less than 6.0, a rating of triangle (fair) was given) |
| 119.7 | 0.099 | 9.59 | 0.19 | 92.8 | 16.71 | 0.10 | 119.7 | 3.92 | CCCCCCCC/C=C\CCCCCCCCC(CCCCCCC/C=C\CCCCCCCC)OC(=O)C(CCC(=O)O)NC(=O)C(N)CCCNC(=N)N (centres unmarked) [Example 2, 4-(2-amino-5-guanidinopentanamido)-5-(((9Z,27Z)-hexatriaconta-9,27-dien-18-yl)oxy)-5-oxopentanoic acid] | 24 | ⊚ (When the obtained value was 0.50 or less, a rating of double-circle (excellent) was given) |
| 103.6 | 0.101 | 15.7 | – | – | – | – | – | – | CCCCCCCC/C=C\CCCCCCCCC(CCCCCCC/C=C\CCCCCCCC)OC(=O)C(CO)NC(=O)C(N)CCCNC(=N)N [Example 4, (9Z,27Z)-hexatriaconta-9,27-dien-18-yl (2S)-2-((S)-2-amino-5-guanidinopentanamido)-3-hydroxypropionate] | 7 | Δ (when the obtained value was more than 1.0 and less than 6.0, a rating of triangle (fair) was given) |
